# Reference: paper PMC6270516 (Molecules, 2013)
# Tests used:
# physchem [1] = conditions: simulated gastric fluid
# physchem [2] = conditions: fassgf or other biorelevant
melting point,solubility (physchem [1]) [µg/mL],solubility (physchem [2]) [µg/mL],Structure (SMILES)
130 to 132 °C,,,CN1c2ccccc2C(=O)N2CCc3c(n(CCCBr)c4ccccc34)C21 (centres unmarked)
126 to 128 °C,,,CN1c2ccccc2C(=O)N2CCc3c(n(CCOCCOCCCl)c4ccccc34)C21 (centres unmarked)
163 to 165 °C,60,175,"C=CCn1c2c(c3ccccc31)CCN1C(=O)c3ccccc3N(C)C21 (centres unmarked) [2-1, N13-Allylevodiamine]"
141 to 143 °C,> 120,> 334,"CCCCn1c2c(c3ccccc31)CCN1C(=O)c3ccccc3N(C)C21 (centres unmarked) [2-2, N13-Butylevodiamine]"
143 to 145 °C,60 to 120,322,"CCCCCn1c2c(c3ccccc31)CCN1C(=O)c3ccccc3N(C)C21 (centres unmarked) [2-3, N13-Pentylevodiamine]"
,60,162,"CC(C)=CCn1c2c(c3ccccc31)CCN1C(=O)c3ccccc3N(C)C21 (centres unmarked) [2-4, N13-(3-Methyl-2-butenyl)evodiamine]"
65 to 67 °C,30,72.3,"CCCCCCCCn1c2c(c3ccccc31)CCN1C(=O)c3ccccc3N(C)C21 (centres unmarked) [2-5, N13-Octylevodiamine]"
158 to 160 °C,60,142,"CN1c2ccccc2C(=O)N2CCc3c(n(CCCc4ccccc4)c4ccccc34)C21 (centres unmarked) [2-6, N13-(3-Phenylpropyl)evodiamine]"
154 to 156 °C,> 110,> 310,"CC(C)Cn1c2c(c3ccccc31)CCN1C(=O)c3ccccc3N(C)C21 (centres unmarked) [2-7, N13-Isobutylevodiamine]"
108 to 110 °C,> 150,> 373,"CC(C)CCn1c2c(c3ccccc31)CCN1C(=O)c3ccccc3N(C)C21 (centres unmarked) [2-8, N13-Isopentylevodiamine]"
118 to 120 °C,60 to 120,322,"CN1c2ccccc2C(=O)N2CCc3c(n(CCCCl)c4ccccc34)C21 (centres unmarked) [2-9, N13-(3-Chloropropyl)evodiamine]"
127 to 129 °C,98,273,"CN1c2ccccc2C(=O)N2CCc3c(n(CCCCCl)c4ccccc34)C21 (centres unmarked) [2-11, N13-(4-Chlorobutyl)evodiamine]"
245 °C (dec.),30 to 60,73.7 to 147,"CN1c2ccccc2C(=O)N2CCc3c(n(CC(=O)c4ccccc4)c4ccccc34)C21 (centres unmarked) [2-13, N13-(Benzonylmethyl)evodiamine]"
166 to 168 °C,15 to 30,41.6 to 83.1,"COCCn1c2c(c3ccccc31)CCN1C(=O)c3ccccc3N(C)C21 (centres unmarked) [2-14, N13-(2-Methoxyethyl)evodiamine]"
116 to 118 °C,60,148,"COCCOCCn1c2c(c3ccccc31)CCN1C(=O)c3ccccc3N(C)C21 (centres unmarked) [2-17, N13-(2-(2-Methoxyethoxy)ethyl)evodiamine]"
117 to 119 °C,> 120,286,"CCOC(Cn1c2c(c3ccccc31)CCN1C(=O)c3ccccc3N(C)C21)OCC (centres unmarked) [2-18, N13-(2,2-Diethoxyethyl)evodiamine]"
205 to 206 °C,> 120,> 308,"CCC(=O)OCCn1c2c(c3ccccc31)CCN1C(=O)c3ccccc3N(C)C21 (centres unmarked) [2-21, N13-(2-Propionyloxyethyl)evodiamine]"
,> 120,265,"CCOC(=O)CCn1c2c(c3ccccc31)CCN1C(=O)c3ccccc3N(C)C21 (centres unmarked) [2-22, N13-(2-(Ethoxycarbonyl)ethyl)evodiamine]"
265 to 268 °C,30,71.9,"CCOC(=O)CCCn1c2c(c3ccccc31)CCN1C(=O)c3ccccc3N(C)C21 (centres unmarked) [2-23, N13-(3-(Ethoxycarbonyl)propyl)evodiamine]"
189 to 191 °C,20,55.7,"CN1c2ccccc2C(=O)N2CCc3c(n(CC4CO4)c4ccccc34)C21 (centres unmarked) [2-24, N13-((Oxiran-2-yl)methyl)evodiamine]"
,67.8,132,"CN1c2ccccc2C(=O)N2CCc3c(n(CCCCCBr)c4ccccc34)C21 (centres unmarked) [2-26, N13-(5-Bromopentyl)evodiamine]"
168 to 170 °C,72.9,132,"CCCOC(=O)Cn1c2c(c3ccccc31)CCN1C(=O)c3ccccc3N(C)C21 (centres unmarked) [2-27, N13-(Propoxycarbonylmethyl)evodiamine]"
251 to 253 °C,89.4,166,"CCOC(=O)CCCCn1c2c(c3ccccc31)CCN1C(=O)c3ccccc3N(C)C21 (centres unmarked) [2-28, N13-(4-(Ethoxycarbonyl)butyl)evodiamine]"
217 to 219 °C,> 120,> 350,"CN1c2ccccc2C(=O)N2CCc3c(n(CCCCCn4c5c(c6ccccc64)CCN4C(=O)c6ccccc6N(C)C54)c4ccccc34)C21 (centres unmarked) [3-1, 1,5-Bis-(evodiamin-N13-yl)pentane]"
131 to 133 °C,> 120,> 320,"CN1c2ccccc2C(=O)N2CCc3c(n(CCCCCCn4c5c(c6ccccc64)CCN4C(=O)c6ccccc6N(C)C54)c4ccccc34)C21 (centres unmarked) [3-2, N1,6-Bis-(evodiamin-N13-yl)hexane]"
166 to 168 °C,> 220,320,"CN1c2ccccc2C(=O)N2CCc3c(n(CCO)c4ccccc34)C21 (centres unmarked) [4-1, N13-(2-Hyroxyethyl)evodiamine]"
,60,167,"CN1c2ccccc2C(=O)N2CCc3c(n(CC=NO)c4ccccc34)C21 (centres unmarked) [6-1, 2-(Evodiamin-N13-yl)acetaldehyde oxime]"
216 °C (dec.),60,160,"CON=CCn1c2c(c3ccccc31)CCN1C(=O)c3ccccc3N(C)C21 (centres unmarked) [6-2, 2-(Evodiamin-N13-yl)acetaldehyde O-methyl oxime]"
234 °C (dec.),60,154,"CN1c2ccccc2C(=O)N2CCc3c(n(CCCC(=O)O)c4ccccc34)C21 (centres unmarked) [compound 5, 4-(Evodiamin-N13-yl)butyric acid]"
,60,174,"CN1c2ccccc2C(=O)N2CCc3c(n(CC=O)c4ccccc34)C21 (centres unmarked) [compound 6, 2-(Evodiamin-N13-yl)acetaldehyde]"

Structure (SMILES),melting point,solubility (physchem [1]) [µg/mL],solubility (physchem [2]) [µg/mL]
"CCCCOCCn1c2c(c3ccccc31)CCN1C(=O)c3ccccc3N(C)C21 (centres unmarked) [2-15, N13-(2-Butoxyethyl)evodiamine]",68 to 70 °C,30 to 120,74.4 to 298
"CC(=O)OCCn1c2c(c3ccccc31)CCN1C(=O)c3ccccc3N(C)C21 (centres unmarked) [2-19, N13-(2-Acetoxyethyl)evodiamine]",211 to 213 °C,> 120,308
"CC(=O)OCCCn1c2c(c3ccccc31)CCN1C(=O)c3ccccc3N(C)C21 (centres unmarked) [2-20, N13-(3-Acetoxypropyl)evodiamine]",,> 120,278
